The values that follow come from patent US20080312435A1, “Imine Compound” (TAISHO PHARMACEUTICAL CO., LTD., priority 2004, published 2008).

The target in one series is T1, human CB2 receptor (Homo sapiens, UniProt P34972).
T1 construct: expressed in transfected cells
Put plainly: Human CB2 receptor binding inhibition test ([3H]CP-55,940, CHO membrane fractions). Particulars: [3H]CP-55,940, membrane fractions of CHO cells stably expressing human CB2 receptor, 25° C., 2 hours; read-out: CB2 IC50 (Inhibition of binding to human CB2 receptor). The text has this: Human CB2 Receptor Binding Inhibition Test
First, cDNA sequence (Munro et al., Nature, 1993, 365, 61-65) encoding a human CB2 receptor was inserted in the forward direction in an animal-cell expression vector, pTARGET Vector (manufactured by Promega) at a region downstream of a CMV promoter. Host cells CHO-DHFR(−) were transfected with the obtained expression vector with the aid of Lipofectamine (manufactured by Invitrogen) to obtain cells capable of stably expressing the CB2 receptor.
After the filtrate was washed with an assay buffer containing 0.1% bovine serum albumin, the radioactivity on the glass filter was measured by a liquid scintillation counter. Nonspecific binding was measured in the presence of 2.0 μM CP-55,940 (manufactured by Tocris). 50% inhibitory concentration (IC50 value) of the test compound for the specific binding was obtained.

T1 sequence (P34972 whole entry): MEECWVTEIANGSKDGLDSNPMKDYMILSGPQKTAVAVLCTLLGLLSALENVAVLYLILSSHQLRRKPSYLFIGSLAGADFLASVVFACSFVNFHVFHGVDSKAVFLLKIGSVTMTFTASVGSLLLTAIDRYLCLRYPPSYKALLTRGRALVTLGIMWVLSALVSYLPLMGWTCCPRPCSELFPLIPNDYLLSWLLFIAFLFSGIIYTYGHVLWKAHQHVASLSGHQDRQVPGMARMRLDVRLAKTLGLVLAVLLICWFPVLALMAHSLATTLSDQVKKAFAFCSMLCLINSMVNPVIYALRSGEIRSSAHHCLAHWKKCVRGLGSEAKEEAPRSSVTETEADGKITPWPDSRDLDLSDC

As to `Cc1c(C(C)(C)C)s/c(=N\C(=O)C2C[C@H]2c2ccccc2)n1CC1CC1` (mixture of isomers) [compound 337], the melting point was 110 to 112 °C. Besides, the IC50 at human CB2 receptor was determined as 2.8 nM. The molecule `Cc1s/c(=N\C(=O)CC(C)CC(C)(C)C)n(CC2CC2)c1C` (racemic) [compound 99] had a melting point of 42 to 43 °C. The IC50 on human CB2 receptor was found to be 6.5 nM. The matching figures for `CCOCCn1c(C)c(C(C)(C)C)s/c1=N\C(=O)c1cccc(C(F)(F)F)c1` [Compound No. 352, 5-t-butyl-3-(2-ethoxyethyl)-4-methyl-2-(3-trifluoromethylbenzoyl)imino-2,3-dihydrothiazole]: 91 to 92 °C and 2.3 nM. In turn, `O=C(/N=c1\ccccn1CC1CCC1)c1cccc(C(F)(F)F)c1F` [compound 12] showed a melting point of 93 to 94 °C. For the same molecule, the IC50 on human CB2 receptor is 13.3 nM. Regarding `Cc1ccn(CC2CC2)/c(=N/C(=O)c2cccc(C(F)(F)F)c2F)c1` [compound 23], the melting point lay within 81 to 83 °C. For the same molecule, at human CB2 receptor, the IC50 amounted to 8.9 nM. The matching figures for `Cc1cc/c(=N\C(=O)c2cccc(C(F)(F)F)c2F)n(CC2CC2)c1` [compound 24]: 118 to 120 °C and 7.5 nM. For `Cc1ccc/c(=N\C(=O)c2cccc(C(F)(F)F)c2F)n1CC1CC1` [compound 25], the melting point fell in the range of 96 to 98 °C. In addition, at human CB2 receptor, the IC50 came out at 17.4 nM.

The molecule `O=C(/N=c1\cc(C(F)(F)F)ccn1CC1CC1)c1cccc(C(F)(F)F)c1F` [compound 29] returned a melting point of 85 to 86 °C. For the same molecule, the IC50 on human CB2 receptor amounted to 8.6 nM. In the case of `O=C(/N=c1\cc(Cl)ccn1CC1CC1)c1cccc(C(F)(F)F)c1F` [compound 33], the melting point fell in the range of 91 to 93 °C. Besides, the IC50 on human CB2 receptor came to 8.2 nM.

Consider `O=C(/N=c1\ccc(Cl)cn1CC1CC1)c1cccc(C(F)(F)F)c1F` [compound 34], for which the melting point was 117 to 119 °C. For the same molecule, on human CB2 receptor, the IC50 was 6.6 nM. The matching figures for `O=C(/N=c1\cccc(Cl)n1CC1CC1)c1cccc(C(F)(F)F)c1F` [compound 35]: 81 to 83 °C and 3.4 nM.

As to `O=C(/N=c1\ccc(F)cn1CC1CC1)c1cccc(C(F)(F)F)c1F` [compound 37], the melting point is 89 to 91 °C. The IC50 at human CB2 receptor came to 11.3 nM. The matching figures for `Cc1c(Br)cc/c(=N\C(=O)c2cccc(C(F)(F)F)c2F)n1CC1CC1` [compound 41]: 135 to 137 °C and 1.4 nM.

As to `Cc1c/c(=N\C(=O)c2cccc(C(F)(F)F)c2F)n(CC2CC2)c(C)c1Br` [compound 46], the melting point was in the range of 121 to 122 °C. For the same molecule, on human CB2 receptor, the IC50 worked out at 1.2 nM. `CC(C)(C)c1c/c(=N\C(=O)c2cc(C(F)(F)F)ccc2F)n(CC2CC2)s1` [compound 58]: the melting point was 63 to 65 °C. The half-maximal inhibitory concentration (IC50) on human CB2 receptor turned out to be 1.8 nM. The matching figures for `Cc1cs/c(=N\C(=O)c2cccc(C(F)(F)F)c2F)n1CC1CC1` [compound 63]: 109 to 111 °C and 4.9 nM.

As to `Cc1cn(CC2CC2)/c(=N/C(=O)c2cccc(C(F)(F)F)c2F)s1` [compound 67], the melting point lay within 129 to 130 °C. In addition, the IC50 on human CB2 receptor was 3 nM. The matching figures for `CCn1c(C)c(C)s/c1=N\C(=O)c1cccc(C(F)(F)F)c1F` [compound 70]: 198 to 200 °C and 14.9 nM. The matching figures for `CCc1ccccc1C(=O)/N=c1\sc(C)c(C)n1CC1CC1` [compound 71]: 150 to 152 °C and 5.9 nM.

On to `Cc1s/c(=N\C(=O)c2ccccc2C(F)(F)F)n(CC2CC2)c1C` [compound 74], for which the melting point was in the range of 125 to 127 °C. In addition, the IC50 at human CB2 receptor came out at 4.6 nM. The matching figures for `Cc1s/c(=N\C(=O)c2ccccc2Br)n(CC2CC2)c1C` [compound 76]: 114 to 116 °C and 14.4 nM. Consider `Cc1s/c(=N\C(=O)c2cccc(Br)c2)n(CC2CC2)c1C` [compound 77], for which the melting point was in the range of 159 to 160 °C. Moreover, at human CB2 receptor, the IC50 is 19.3 nM.

`Cc1s/c(=N\C(=O)c2ccccc2I)n(CC2CC2)c1C` [compound 78] showed a melting point of 130 to 132 °C. In addition, the IC50 on human CB2 receptor was found to be 9.8 nM. As to `COc1ccccc1C(=O)/N=c1\sc(C(C)(C)C)c(C)n1CC1CC1` [compound 195], the IC50 on human CB2 receptor was 3.2 nM.

Regarding `Cc1c(C(C)(C)C)s/c(=N\C(=O)c2ccccc2OC(F)(F)F)n1CC1CC1` [compound 197], the IC50 at human CB2 receptor turned out to be 2 nM.

Consider `Cc1c(C(C)(C)C)s/c(=N\C(=O)c2cccc(C#N)c2)n1CC1CC1` [compound 211], for which the IC50 on human CB2 receptor came to 12 nM. As to `Cc1c(C(C)(C)C)s/c(=N\C(=O)c2cccc(F)c2F)n1CC1CC1` [compound 222], the IC50 at human CB2 receptor turned out to be 11.3 nM. Turning to `Cc1c(C(C)(C)C)s/c(=N\C(=O)c2cccc(Cl)c2F)n1CC1CC1` [compound 225], the IC50 at human CB2 receptor amounted to 3.9 nM. `Cc1c(C(C)(C)C)s/c(=N\C(=O)c2cccc(C(F)(F)F)c2F)n1CC1CC1` [compound 250]: the IC50 on human CB2 receptor amounted to 1.1 nM. Turning to `Cc1c(C(C)(C)C)s/c(=N\C(=O)c2ccc(F)cc2C(F)(F)F)n1CC1CC1` [compound 255], the IC50 on human CB2 receptor is 0.6 nM. Consider `Cc1c(C(C)C)o/c(=N\C(=O)c2cccc(C(F)(F)F)c2F)n1CC1CC1` [compound 369], for which, at human CB2 receptor, the IC50 came out at 1.4 nM. As to `CCCCn1c(C)c(C(C)(C)C)s/c1=N\S(=O)(=O)c1cccc2ccccc12` [compound 387], the IC50 on human CB2 receptor amounted to 13.7 nM. In the case of `Cc1c(C(C)(C)C)s/c(=N\S(=O)(=O)c2cccc(Cl)c2Cl)n1CC1CC1` [compound 399], the IC50 on human CB2 receptor was found to be 6.8 nM. Take `Cc1c(C(C)(C)C)s/c(=N\S(=O)(=O)c2c(Cl)cccc2Cl)n1CC1CC1` [compound 402]: the IC50 on human CB2 receptor came to 15.4 nM. On to `Cc1cc(C)c(S(=O)(=O)/N=c2\sc(C(C)(C)C)c(C)n2CC2CC2)c(C)c1` [compound 410], for which the IC50 at human CB2 receptor was 7.1 nM. Same read-out and setting: for `CC#CCn1c(C)c(C(C)(C)C)s/c1=N\S(=O)(=O)c1cccc2ccccc12` [compound 427] the value was 5.9 nM; for `Cc1c(C(=O)/N=c2\cc(C(C)(C)C)n(C)n2CC2CC2)cccc1C(F)(F)F` [compound 470], 10.6 nM; for `Cn1c(C(C)(C)C)c/c(=N\C(=O)c2cccc(C(F)(F)F)c2F)n1CC1CCC1` [compound 482, N-(5-t-butyl-2-cyclobutylmethyl-1,2-dihydro-1-methylpyrazol-3-ylidene)-2-fluoro-3-(trifluoromethyl)benzamide], 1.2 nM.

Turning to `Cn1c(C(C)(C)C)c/c(=N\C(=O)c2cccc(C(F)(F)F)c2F)n1CC1CCCC1` [compound 485], at human CB2 receptor, the IC50 came out at 1.1 nM. With `CCOCCn1/c(=N/C(=O)c2cccc(C(F)(F)F)c2F)cc(C(C)(C)C)n1C` [compound 488], at human CB2 receptor, the IC50 came out at 4 nM. For `CC(C)OCCn1/c(=N/C(=O)c2cccc(C(F)(F)F)c2F)cc(C(C)(C)C)n1C` [compound 493], the IC50 on human CB2 receptor is 1.9 nM. Still for that read-out and setting: in the case of `CCn1c(C(C)(C)C)c/c(=N\C(=O)c2cccc(C(F)(F)F)c2F)n1CC1CC1` [compound 495] it was 6.3 nM. Regarding `CC(C)(C)c1nn(CC2CC2)/c(=N/C(=O)c2cccc(C(F)(F)F)c2F)s1` [compound 504], the IC50 at human CB2 receptor came to 15.4 nM.

With `CCOc1ccncc1C(=O)/N=c1\sc(C(C)(C)C)nn1CC1CC1` [compound 513], the IC50 at human CB2 receptor was 16.9 nM.

As a reminder, the melting point is the temperature of the solid-liquid transition. One may read the IC50 as the concentration at which inhibition is half-maximal.
